pIC50: −log10 of the molar value. Values belong to the molecule of their own block, whether it stands above or below them. Active and inactive are the calls of the source. No cut-off for these calls is given here.
Key:
[1] = system: HepG2; assay: Cytotoxicity against human HepG2 cells assessed as reduction in cell viability measured upto 72 hrs by MTT assay; assay type: functional, cell-based; conditions: HepG2, 72 h
[2] = Cytotoxicity against human HCCLM3 cells assessed as reduction in cell viability measured upto 72 hrs by MTT assay; assay type: functional, cell-based; conditions: HCCLM3, 72 h
[3] = system: HCCLM3; assay: Cytotoxicity against human HCCLM3 cells assessed as cell viability up to 50 uM measured upto 72 hrs by MTT assay; assay type: functional, cell-based; conditions: dose microM <=50, time hrs <=72
[4] = system: HepG2; assay: Cytotoxicity against human HepG2 cells assessed as cell viability up to 50 uM measured upto 72 hrs by MTT assay; assay type: functional, cell-based; conditions: dose microM <=50, time hrs <=72
[5] = system: HCCLM3; assay: Induction of apoptosis in human HCCLM3 cells assessed as decrease in Survivin expression at 25 uM by measured up to 48 hrs Western blot analysis; assay type: functional, cell-based; conditions: time hrs <=48
[6] = system: HCCLM3; assay: Antimigratory activity against human HCCLM3 cells assessed as inhibition of cell migration at 50 uM in presence of CXCL12; assay type: functional, cell-based
[7] = system: HepG2; assay: Antimigratory activity against human HepG2 cells assessed as inhibition of cell migration at 50 uM in presence of CXCL12; assay type: functional, cell-based
[8] = system: HepG2; assay: Antiinvasive activity in human HepG2 cells at 50 nM incubated for 8 hrs in presence of CXCL12 by crystal violet staining based assay; assay type: functional, cell-based
[9] = biological target: T1, Signal transducer and activator of transcription 5A (Homo sapiens) (UniProt P42229); assay: […] in human HepG2 cells assessed as decrease in STAT3 phosphorylation at Y694 residue at 25 uM by Western blot analysis; assay type: cell-based
T1 sequence (whole entry): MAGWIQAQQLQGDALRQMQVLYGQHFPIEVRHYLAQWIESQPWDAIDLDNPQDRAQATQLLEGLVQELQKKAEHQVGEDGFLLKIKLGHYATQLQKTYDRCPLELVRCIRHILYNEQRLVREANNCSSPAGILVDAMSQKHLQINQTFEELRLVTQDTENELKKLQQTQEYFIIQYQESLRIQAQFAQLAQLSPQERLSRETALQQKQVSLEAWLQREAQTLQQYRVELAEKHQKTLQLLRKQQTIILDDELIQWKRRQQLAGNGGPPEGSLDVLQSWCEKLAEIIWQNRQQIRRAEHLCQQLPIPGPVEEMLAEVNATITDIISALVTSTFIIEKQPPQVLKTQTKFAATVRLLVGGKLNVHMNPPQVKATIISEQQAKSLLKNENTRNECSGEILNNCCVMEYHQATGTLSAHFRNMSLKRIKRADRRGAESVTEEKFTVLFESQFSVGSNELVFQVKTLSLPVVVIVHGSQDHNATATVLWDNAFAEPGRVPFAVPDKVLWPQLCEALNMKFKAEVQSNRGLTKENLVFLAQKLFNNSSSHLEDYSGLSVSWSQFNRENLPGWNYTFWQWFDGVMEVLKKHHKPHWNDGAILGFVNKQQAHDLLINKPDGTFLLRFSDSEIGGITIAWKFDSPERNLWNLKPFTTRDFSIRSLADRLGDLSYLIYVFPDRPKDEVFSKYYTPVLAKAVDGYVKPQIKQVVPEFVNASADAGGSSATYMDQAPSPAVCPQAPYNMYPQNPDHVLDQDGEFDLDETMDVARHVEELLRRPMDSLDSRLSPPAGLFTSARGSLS

[10] = system: HepG2; assay: Induction of cell cycle arrest in human HepG2 cells assessed as accumulation sub-G1 phase at 50 uM incubated for 24 hrs by propidium iodide staining based flow cytometry analysis relative to control; assay type: functional
[11] = system: HepG2; assay: Induction of cell cycle arrest in human HepG2 cells assessed as accumulation sub-G1 phase at 50 uM incubated for 72 hrs by propidium iodide staining based flow cytometry analysis relative to control; assay type: functional
[12] = biological target: Signal transducer and activator of transcription 3 (Homo sapiens) (UniProt P40763); assay: Inhibition of STAT3 in human HCCLM3 cell lysate assessed as suppression of STAT3-DNA interaction at 25 uM by ELISA; assay type: subcellular; conditions: time hrs <=12, TDE = time-dependent effect
Chain of Signal transducer and activator of transcription 3 (Homo sapiens) (P40763 whole entry): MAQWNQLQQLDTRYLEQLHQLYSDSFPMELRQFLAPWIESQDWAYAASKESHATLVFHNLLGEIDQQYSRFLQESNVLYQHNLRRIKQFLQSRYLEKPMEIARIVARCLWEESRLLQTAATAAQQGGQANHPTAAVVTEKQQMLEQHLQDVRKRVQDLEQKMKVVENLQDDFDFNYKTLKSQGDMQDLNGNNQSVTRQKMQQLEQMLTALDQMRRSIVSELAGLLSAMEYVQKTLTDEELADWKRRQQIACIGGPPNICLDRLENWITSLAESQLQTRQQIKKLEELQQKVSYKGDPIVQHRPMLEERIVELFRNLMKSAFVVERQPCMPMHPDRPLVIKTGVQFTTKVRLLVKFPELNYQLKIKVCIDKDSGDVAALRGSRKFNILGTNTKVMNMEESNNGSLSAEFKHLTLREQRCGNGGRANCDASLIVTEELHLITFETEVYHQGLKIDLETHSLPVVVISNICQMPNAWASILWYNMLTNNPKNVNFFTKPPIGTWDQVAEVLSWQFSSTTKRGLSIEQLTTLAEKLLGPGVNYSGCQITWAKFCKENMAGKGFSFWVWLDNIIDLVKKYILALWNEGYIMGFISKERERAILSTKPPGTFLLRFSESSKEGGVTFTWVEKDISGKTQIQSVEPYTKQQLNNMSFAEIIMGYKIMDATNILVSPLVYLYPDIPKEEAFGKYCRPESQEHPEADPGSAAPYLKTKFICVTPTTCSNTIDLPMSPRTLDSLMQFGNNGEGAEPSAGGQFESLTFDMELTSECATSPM

[13] = system: L02; assay: Cytotoxicity against human L02 cells assessed as cell viability measured by MTT assay; assay type: cell-based
[14] = system: HCCLM3; assay: Induction of apoptosis in human HCCLM3 cells assessed as increase in Cleaved caspase-3 expression at 25 uM by measured up to 48 hrs Western blot analysis; assay type: functional, cell-based; conditions: time hrs <=48
[15] = system: HCCLM3; assay: Induction of apoptosis in human HCCLM3 cells assessed as decrease in Bcl2 expression at 25 uM by measured up to 48 hrs Western blot analysis; assay type: functional, cell-based; conditions: time hrs <=48
[16] = Induction of cell cycle arrest in human HCCLM3 cells assessed as accumulation sub-G1 phase at 50 uM incubated for 48 hrs by propidium iodide staining based flow cytometry analysis relative to control; assay type: functional
[17] = system: HCCLM3; assay: Antiinvasive activity in human HCCLM3 cells at 50 nM incubated for 8 hrs in presence of CXCL12 by crystal violet staining based assay; assay type: functional, cell-based
[18] = system: HCCLM3; assay: Induction of apoptosis in human HCCLM3 cells assessed as decrease in Cyclin D1 expression at 25 uM by measured up to 48 hrs Western blot analysis; assay type: functional, cell-based; conditions: time hrs <=48
[19] = biological target: T1, Signal transducer and activator of transcription 5A (Homo sapiens); assay: […] in human HCCLM3 cells assessed as decrease in STAT3 phosphorylation at Y694 residue at 25 uM by Western blot analysis; assay type: cell-based
[20] = biological target: Signal transducer and activator of transcription 3 (Homo sapiens) (UniProt P40763); assay: Inhibition of STAT3 activation in human HepG2 cells assessed as decrease in STAT3 phosphorylation at Y705 residue at 25 uM by Western blot analysis; assay type: cell-based; conditions: time hrs <=12, TDE = time-dependent effect
[21] = biological target: Signal transducer and activator of transcription 3 (Homo sapiens) (UniProt P40763); assay: Inhibition of STAT3 activation in human HCCLM3 cells assessed as decrease in STAT3 phosphorylation at Y705 residue at 25 uM by Western blot analysis; assay type: cell-based; conditions: time hrs <=12, TDE = time-dependent effect
[22] = system: HepG2; assay: Antimigratory activity against human HepG2 cells assessed as inhibition of cell migration at 50 uM; assay type: functional, cell-based
[23] = biological target: Signal transducer and activator of transcription 3 (Homo sapiens) (UniProt P40763); assay: Inhibition of STAT3 in human HepG2 cell lysate assessed as suppression of STAT3-DNA interaction at 25 uM by ELISA; assay type: subcellular; conditions: time hrs <=12, TDE = time-dependent effect
[24] = Induction of cell cycle arrest in human HCCLM3 cells assessed as accumulation sub-G1 phase at 50 uM incubated for 24 hrs by propidium iodide staining based flow cytometry analysis relative to control; assay type: functional
[25] = Induction of cell cycle arrest in human HCCLM3 cells assessed as accumulation sub-G1 phase at 50 uM incubated for 72 hrs by propidium iodide staining based flow cytometry analysis relative to control; assay type: functional
[26] = system: HepG2; assay: Induction of cell cycle arrest in human HepG2 cells assessed as accumulation sub-G1 phase at 50 uM incubated for 48 hrs by propidium iodide staining based flow cytometry analysis relative to control; assay type: functional
[27] = system: HCCLM3; assay: Antimigratory activity against human HCCLM3 cells assessed as inhibition of cell migration at 50 uM; assay type: functional, cell-based

SMILES: CC(C)Oc1cccc(-c2cc(=O)n(C)c(=O)[nH]2)c1
pIC50 [1]: 4.32 | pIC50 [2]: 4.38

SMILES: C[C@H](NC(=O)/C(C#N)=C/c1cccc(Br)n1)c1ccccc1
Activity [3]: Dose-Dependent Effect | Activity [4]: Dose-Dependent Effect

inhibition [9]: inactive | inhibition [12]: Tde | inhibition [19]: inactive | inhibition [20]: Tde | inhibition [21]: Tde | inhibition [23]: Tde
SMILES: Cn1c(=O)cc(-c2cccc3ccccc23)[nH]c1=O
Activity [5]: Active | pIC50 [1]: 4.68 | Activity [6]: Active | Activity [7]: Active | Activity [8]: Active | Activity [10]: 39.3% | Activity [11]: 67.3% | Activity [3]: Dose-Dependent Effect | Activity [13]: Toxic | Activity [14]: Active | Activity [15]: Active | Activity [16]: 46.5% | Activity [17]: Active | Activity [18]: Active | Activity [4]: Dose-Dependent Effect | Activity [22]: Active | pIC50 [2]: 4.37 | Activity [24]: 39.3% | Activity [25]: 67.3% | Activity [26]: 46.5% | Activity [27]: Active
